Test [1] relates to hypercholesterolemic rat model. The test can be described thus: Hypocholesterolemic effects of R-P-P-R, K-P-P, L-arginine and Ezetimib in Fisher F344 rats (Example 6). To be noted: for Effect on non-HDL cholesterol (VLDL-cholesterol+LDL-cholesterol) as compared to the control group / Effect on plasma HDL-cholesterol as compared to the control group / Effect on plasma total cholesterol as compared to the control group: in words, 8 days orally, 100 mg/kg BW (Ezetimib 1 mg/kg BW); for HDL cholesterol (plasma) / Total cholesterol (plasma) / non HDL cholesterol (plasma): male F344 rats on atherogenic diet, orally for 8 days, peptides and L-arginine 100 mg/kg BW, Ezetimib 1 mg/kg BW, mean ± SD; for non HDL cholesterol (plasma): difference between total and HDL cholesterol. The test is classed as in vivo. On the procedure: In this experiment the effects of the chemically synthesized peptides R-P-P-R and K-P-P, the free amino acid L-arginine and the potent and selective cholesterol absorption inhibitor Ezetimib (Ezetrol, MSD Germany) were tested on plasma cholesterol levels in the hypercholesterolemic rat model.
Male Fisher rats (F344) from Charles River (Sulzfeld, Germany), weighing 65-96 g were housed individually with free access to water and feed, with an alternating 12-hour light-dark cycle. The animals were fed a rodent atherogenic diet high in cholesterol and fat similar to the procedure described in Example 5. After 2 weeks of adaptation to the diet the rats were randomized according to body weight into five experimental groups of 10 animals each. The five groups were treated orally every morning for 8 days with either water (control group) or with R-P-P-R, K-P-P and L-arginine at a dose of 100 mg/kg body weight (BW) or with Ezetimib at a dose of 1 mg/kg BW while continuing the aetherogenic diet. There was no difference in feed consumption over the whole experiment. The day before the last administration, all animals were dosed orally in the evening and deprived of food for the last 6 hours but allowed free access to water. At day 8 the fasted rats were treated again orally in the morning and after two hours the animals were sacrificed by withdrawing blood from the vena Cava under Isoflurane anesthesia. Blood was collected into tubes containing EDTA as an anticoagulant. Plasma was prepared from the blood by immediate centrifugation at 1600 g for 10 minutes at 4° C. Assays of plasma cholesterol and HDL-cholesterol (precipitation method) were determined enzymatically on a Hitachi 912 automatic analyzer (Roche Diagnostica, Switzerland). Non-HDL cholesterol was calculated by difference between total cholesterol and HDL cholesterol. All data are expressed as means±standard deviation (SD) for animals in each diet group, with n being the number of rats.

Test [2] concerns hypercholesterolemic rat model. The test can be described thus: Hypocholesterolemic effects of peptide R-P-P-R-S in Fisher F344 rats (Example 5). The test is classed as in vivo. The note with it: male F344 rats on atherogenic diet, 100 mg/kg BW orally for 7 days, mean ± SD. On the procedure: In this experiment the effects of the chemically synthesized […] R-P-P-R-S was tested on plasma cholesterol levels in the hypercholesterolemic rat model.
In short male Fisher rats (F344) from Charles River (Sulzfeld, Germany), weighing 65-96 g were housed individually with free access to water and feed, with an alternating 12-hour light-dark cycle. The animals were fed a rodent atherogenic diet high in cholesterol and fat for the 2 weeks preceding the treatment. The macro-nutrient composition of the diet was as follows (g/100 g anhydrous mix): protein 20.8; fiber 4.2; fat 15; carbohydrate 48. The diet also contained 1.25 wt % cholesterol, 0.5 wt % sodium cholate and a standard vitamin and mineral mix, prepared according to rat nutritional requirements. The main fats consisted of cacoa butter (7.5 wt %) and soja oil (4.35 wt %). After 2 weeks of adaptation to the diet the rats were randomized according to body weight into two experimental groups of 10 animals. The two groups were treated orally every morning for 7 days with either water (control group) or peptide R-P-P-R-S, at a dose of 100 mg/kg body weight (BW) while continuing the aetherogenic diet. There was no difference in feed consumption over the whole experiment. The day before the last administration, all animals were dosed orally in the evening and deprived of food overnight (14 hours) but allowed free access to water. At day 7 the fasted rats were treated again orally in the morning and after two hours the animals were sacrificed by withdrawing blood from the vena Cava under Isoflurane anesthesia. Blood was collected into tubes containing EDTA as an anticoagulant. […] Assays of plasma cholesterol and HDL-cholesterol (precipitation method) were determined enzymatically on a Hitachi 912 automatic analyzer (Roche Diagnostica, Switzerland). Non-HDL cholesterol was calculated by difference between total cholesterol and HDL cholesterol. […] All data are expressed as means±standard deviation (SD) for animals in each diet group, with n being the number of rats. […]

Marks after values point to notes of the source that are not given here.

For `O=C1[C@H](CC[C@H](O)c2ccc(F)cc2)[C@@H](c2ccc(O)cc2)N1c1ccc(F)cc1` [Ezetimib, reference compound], in test [1], the “Effect on non-HDL cholesterol (VLDL-cholesterol+LDL-cholesterol) as compared to the control group” value is “prominent effects”, the “Effect on plasma HDL-cholesterol as compared to the control group” value was “prominent effects”, the “Effect on plasma total cholesterol as compared to the control group” value is given as “prominent effects” and the “HDL cholesterol (plasma)” value is recorded as 0.51 ± 0.06 mmol/L. Also, in test [1], the “Total cholesterol (plasma)” value stood at 4.70 ± 0.93 mmol/L and the “non HDL cholesterol (plasma)” value was 4.19 ± 0.90 mmol/L.
On to `N=C(N)NCCC[C@H](N)C(=O)O` [L-arginine, reference compound], for which, in test [1], the “Effect on non-HDL cholesterol (VLDL-cholesterol+LDL-cholesterol) as compared to the control group” value is listed as “had no effect”, the “Effect on plasma HDL-cholesterol as compared to the control group” value is “had no effect”, the “Effect on plasma total cholesterol as compared to the control group” value is “had no effect” and the “HDL cholesterol (plasma)” value was 0.33 ± 0.05 mmol/L. Besides, in test [1], the “Total cholesterol (plasma)” value is reported as 7.66 ± 1.08 mmol/L and the “non HDL cholesterol (plasma)” value is reported as 7.32 ± 1.08 mmol/L.
On to K-P-P [KPP], for which, in test [1], the “Effect on non-HDL cholesterol (VLDL-cholesterol+LDL-cholesterol) as compared to the control group” value is “tended to lowered”, the “Effect on plasma HDL-cholesterol as compared to the control group” value is listed as “significantly increased”, the “Effect on plasma total cholesterol as compared to the control group” value is reported as “tended to lowered” and the “HDL cholesterol (plasma)” value worked out at 0.37 ± 0.04 mmol/L. In test [1], the “Total cholesterol (plasma)” value stood at 6.82 ± 1.42 mmol/L and the “non HDL cholesterol (plasma)” value is reported as 6.45 ± 1.44 mmol/L.
For “R-P-P-R (RPPR) [chemically synthesized peptide Arg-Pro-Pro-Arg]”, in test [1], the “Effect on non-HDL cholesterol (VLDL-cholesterol+LDL-cholesterol) as compared to the control group” value is “significantly lowered”, the “Effect on plasma HDL-cholesterol as compared to the control group” value is “tended to increase”, the “Effect on plasma total cholesterol as compared to the control group” value is recorded as “significantly lowered” and the “HDL cholesterol (plasma)” value was found to be 0.35 ± 0.04 mmol/L. For the same molecule, in test [1], the “Total cholesterol (plasma)” value was 5.28 ± 0.81 mmol/L and the “non HDL cholesterol (plasma)” value turned out to be 4.94 ± 0.81 mmol/L.
“R-P-P-R-S (RPPRS) [chemically synthesized peptide Arg-Pro-Pro-Arg-Ser]”: in test [2] (fasted, 2 h after last dose), the “HDL cholesterol (plasma)” value is 0.36 ± 0.10^b mmol/L and the “Total cholesterol (plasma)” value is recorded as 2.9 ± 0.4^b mmol/L. In addition, the “non HDL cholesterol (plasma)” value in test [2] (difference between total and HDL cholesterol) was 2.5 ± 0.5^b mmol/L.
